Source: patent US20140303242A1, “Sparstolonin B Based Pharmaceutical Agent to Treat Pathological Angiogensis” (University of South Carolina, priority 2013, published 2014)

Assays:
HCAECs [1] = experiment: Real time RT-PCR gene expression (HCAECs); format: cell-based, human; conditions: 24 h
Experimental: After a careful analysis of the microarray data, key genes (CDC6, CCNE2, KITLG, ALDH3A1, CCNB1, CDC2, HMMR, DIAPH3, ANLN, and CDKN3) were chosen for quantitative real-time PCR (qRT-PCR) to verify the gene expression results. HCAECs and HUVECs were exposed to SsnB or vehicle control for 24 h (as previously described in the microarray section). For RT-PCR, RNA was isolated from the cells with the RNeasy Mini kit as described previously. After forward and reverse primer kits (Qiagen, Valencia, Calif.) were selected, the RNA was amplified. The one-step RT-PCR reactions were completed on the BioRad iCycler thermal cycler system in the Instrumentation Resource Facility at the USC School of Medicine. The expression levels were normalized, and RNA levels were quantified.
(§1) Microarray data analysis, including data normalization (robust multi-array average), identification of differentially expressed genes (comparative analyses with dChip software), and heat map construction, was carried out to determine how SsnB affects gene expression and affected pathways (n=2 for HUVECs and n=3 for HCAECs). After a careful analysis of the microarray data, several key genes were chosen for qRT-PCR to verify the gene expression results. The genes were chosen based on the following criteria: fold change ≧2, p<0.05, unpaired t-test with a false discovery rate approximating 0%, appearing in both data sets (HUVECs and HCAECs), and gene function relating to cell proliferation and/or angiogenesis. For qRT-PCR, the expression levels were normalized to the housekeeping gene GAPDH, and RNA levels were compared between groups with the ΔΔCt method.

HCAECs [2] = experiment: Microarray gene expression analysis (HCAECs); format: cell-based, human; conditions: 24 h
Experimental: Confluent plates (100×20 mm polystyrene, tissue culture-treated petri plates coated with 0.1% gelatin, 75% confluent) of HUVECs and HCAECs (four plates for HUVECs, n=2, and six plates for HCAECs, n=3) were chosen for the microarray experiments. Half of the plates received complete growth medium (10% fetal bovine serum with endothelial mitogen) containing vehicle control (0.1% DMSO), and the remaining plates received complete growth medium containing 100 μM SsnB. The plates were incubated for 24 h to allow SsnB to have an effect on cellular gene expression. Following incubation, RNA isolation was completed with the RNeasy Mini kit from Qiagen. The cells were lysed, and RNA was isolated by using the RNeasy spin columns and following the protocol provided by Qiagen. Purified RNA was sent to the Medical University of South Carolina Proteogenomics Facility for microarray analysis. The GeneChip Human Genome U133 Plus 2.0 Array was utilized to track changes in gene expression due to SsnB treatment. Complete data was uploaded to the NCBI Gene Expression Omnibus database (accession number GSE44598).
as §1

HUVECs [3] = experiment: Live/Dead cell viability assay; format: cell-based; conditions: HUVECs, 1, 10, 100 μM, 4 h
Experimental: A Live/Dead assay (Invitrogen, Eugene, Oreg.) was utilized to investigate the effect of SsnB on cell viability. The Matrigel tube formation experiment was repeated with HUVECs in chamber slides at a concentration of 20,000 cells per well. The cells were treated with SsnB (1, 10, or 100 μM) or Vehicle Control (0.1% DMSO) as described above. After four hours of incubation, the slides were removed. A chamber slide containing HUVECs treated with 70% methanol for 30 minutes was used as a control for dead cell staining. The slides were aspirated and washed with PBS, and EthD-1 and calcein AM were added to each well. The plates were incubated in the dark, and images were taken with a light microscope at 10× magnification.

[4] = tested on: Toll-like Receptors 2 and 4 (TLR2 and TLR4); conditions: mouse and human macrophages, prior research; cited from earlier work
HUVECs [5] = experiment: Cell cycle analysis, propidium iodide flow cytometry; format: cell-based, human
Experimental: Cell cycle analysis was performed using propidium iodide staining and flow cytometry. HUVECs (approximately 75% confluent) cultured in 6 well polystyrene culture plates coated with 0.1% gelatin were serum starved for 24 hours in low serum medium containing 0.5% fetal bovine serum and no endothelial cell mitogen to synchronize the cells in the G1/S phase. After 24 hours, the low serum medium was replaced with treatments of either 100 μM SsnB or vehicle control (0.1% DMSO) diluted in complete growth medium (10% fetal bovine serum with endothelial cell mitogen) in triplicate. The treated cells were incubated for 24, 30, and 36 hours. After incubation, the cells were trypsinized, transferred to 5 ml polysytrene round bottom tubes (12×75 mm), and centrifuged. The medium was aspirated, and the cells were washed with PBS. After fixing the cells with ice-cold 70% ethanol for 15 min, the cells were centrifuged and stained with propidium iodide for 30 min. The samples were then analyzed with a flow cytometer (Beckman Coulter FC500). The unstained and stained cell groups were used to calibrate the settings on the flow cytometer. The data were collected and analyzed with ModFit software.

[6] = SsnB vs vehicle control, normalized to GAPDH
[7] = synchronized HUVECs, 100 μM SsnB, 24, 30 and 36 hours, vs vehicle control

SMILES: O=c1occ2c3c(ccc(O)c13)Oc1ccc(O)cc1-2 [SsnB, Sparstolonin B]
- ALDH3A1 expression (qRT-PCR) (HCAECs [1]): 4620 % of controls
- CCNE2 gene expression after SsnB exposure (qRT-PCR) (HCAECs [1]): 57 % of controls
- CDC6 gene expression after SsnB exposure (qRT-PCR) (HCAECs [1]): 14 % of controls
- KITLG expression (qRT-PCR) (HCAECs [1]): 260 % of controls
- ALDH3A1 PCR 2^ΔΔCt value (HCAECs [1]; [6]): 46.2
- ANLN PCR 2^ΔΔCt value (HCAECs [1]; [6]): 0.13
- CCNB1 PCR 2^ΔΔCt value (HCAECs [1]; [6]): 0.13
- CCNE2 PCR 2^ΔΔCt value (HCAECs [1]; [6]): 0.57
- CDC2 PCR 2^ΔΔCt value (HCAECs [1]; [6]): 0.17
- CDC6 PCR 2^ΔΔCt value (HCAECs [1]; [6]): 0.14
- CDKN3 PCR 2^ΔΔCt value (HCAECs [1]; [6]): 0.22
- DIAPH3 PCR 2^ΔΔCt value (HCAECs [1]; [6]): 0.26
- HMMR PCR 2^ΔΔCt value (HCAECs [1]; [6]): 0.062
- KITLG PCR 2^ΔΔCt value (HCAECs [1]; [6]): 2.6
- ALDH3A1 Microarray Fold change value (HCAECs [2]; 100 μM SsnB vs vehicle control): 8.8
- ANLN Microarray Fold change value (HCAECs [2]; 100 μM SsnB vs vehicle control): 0.11
- CCNB1 Microarray Fold change value (HCAECs [2]; 100 μM SsnB vs vehicle control): 0.16
- CCNE2 Microarray Fold change value (HCAECs [2]; 100 μM SsnB vs vehicle control): 0.38
- CDC2 Microarray Fold change value (HCAECs [2]; 100 μM SsnB vs vehicle control): 0.20
- CDC6 Microarray Fold change value (HCAECs [2]; 100 μM SsnB vs vehicle control): 0.18
- CDKN3 Microarray Fold change value (HCAECs [2]; 100 μM SsnB vs vehicle control): 0.18
- DIAPH3 Microarray Fold change value (HCAECs [2]; 100 μM SsnB vs vehicle control): 0.38
- HMMR Microarray Fold change value (HCAECs [2]; 100 μM SsnB vs vehicle control): 0.20
- KITLG Microarray Fold change value (HCAECs [2]; 100 μM SsnB vs vehicle control): 2.1
- number of differentially expressed genes in response to SsnB exposure (HCAECs [2]; 100 μM, fold change ≧2, p<0.05): 356 genes
- cell viability (live/dead assay) (HUVECs [3]): no effect on cell viability
- inflammatory responses of macrophages to ligands for TLR2 and TLR4 [4]: selectively inhibiting
- G2/M blockage (HUVECs [5]; non-synchronized (no serum starvation) HUVECs): G2/M blockage was observed
- percentage of cells in the G1 phase (HUVECs [5]; [7]): increase
- percentage of cells in the S phase (HUVECs [5]; [7]): decrease
